Read-outs that look alike come from different tables or passages of the source.

The target of this experiment is T1, human GLP-1R (Homo sapiens, UniProt P43220).
T1 construct: host or cells: HEK293
Nature of the experiment: GLP-1R cAMP assay (Example B1a, HTRF, 30 min at room temperature). In kind it is cell-based. A digest of the protocol: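 Competitive HTRF read-out of cAMP after 30 min room-temperature stimulation, BETP absent, of human GLP-1R-HEK293 cells (1,000/well) in HEPES buffer with 500 μM IBMX and 0.1% BSA. Activation normalised to GLP-1(7-37) positive control. EC50 from 4-parameter non-linear regression.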
(In general: Cyclic AMP is a second messenger, typically raised through Gs and lowered through Gi signalling.)

[1] abbreviates: cAMP accumulation in HEK293 expressing human GLP-1R, no BETP, 30 min room temperature (Method B1a, compounds ID 1-609), Table 1, read-out: EC50.
Where [2] appears, read: Table 1d, stereoisomer pairs, read-out: EC50.

T1 sequence (P43220 24-463): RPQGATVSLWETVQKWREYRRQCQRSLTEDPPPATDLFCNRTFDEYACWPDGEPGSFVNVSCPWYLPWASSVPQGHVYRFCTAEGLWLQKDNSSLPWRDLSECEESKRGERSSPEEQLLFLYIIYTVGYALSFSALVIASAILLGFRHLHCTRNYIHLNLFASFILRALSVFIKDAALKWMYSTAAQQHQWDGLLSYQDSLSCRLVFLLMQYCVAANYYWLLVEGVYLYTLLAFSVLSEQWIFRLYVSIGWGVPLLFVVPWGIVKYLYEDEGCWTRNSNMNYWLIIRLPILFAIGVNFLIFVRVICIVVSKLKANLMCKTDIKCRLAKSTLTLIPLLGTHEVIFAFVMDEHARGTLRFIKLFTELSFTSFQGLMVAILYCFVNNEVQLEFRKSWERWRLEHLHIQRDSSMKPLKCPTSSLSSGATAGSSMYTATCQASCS

Consider `Cc1cc(-n2nc3c(c2-n2ccn(-c4ccc5c(cnn5C)c4F)c2=O)[C@@H]2COC[C@H](C3)N2C(=O)c2cc3cc([C@@H]4CCOC5(CC5)C4)ccc3n2[C@@]2(c3noc(=O)[nH]3)C[C@@H]2C)cc(C)c1F` [Compound 227, 3-((1S,2S)-1-(2-((4R,8S)-3-(3-(4-fluoro-1-methyl-1H-indazol-5-yl)-2-oxo-2,3-dihydro-1H-imidazol-1-yl)-2-(4-fluoro-3,5-dimethylphenyl)-2,4,5,7,8,9-hexahydro-4,8-epiminooxocino [5,4-c]pyrazole-10-carbonyl)-5-((R)-4-oxaspiro[2.5]octan-7-yl)-1H-indol-1-yl)-2-methylcyclopropyl)-1,2,4-oxadiazol-5 (4H)-one], for which the EC50 (in general, the concentration that produces a half-maximal response) under setting [1] stood at 585 nM. For the compound `Cc1cc(-n2nc3c(c2-n2ccn(-c4ccc5c(cnn5C)c4F)c2=O)[C@@H]2COC[C@H](C3)N2S(=O)(=O)c2cc3cc(C4CCOCC4)ccc3n2[C@@]2(c3noc(=O)[nH]3)C[C@@H]2C)cc(C)c1F` [Compound 526, 3-[(1S,2S)-1-[2-[[(1R,8S)-4-(4-fluoro-3,5-dimethyl-phenyl)-3-[3-(4-fluoro-1-methyl-indazol-5-yl)-2-oxo-imidazol-1-yl]-10-oxa-4,5,12-triazatricyclo[6.3.1.02,6]dodeca-2,5-dien-12-yl]sulfonyl]-5-tetrahydropyran-4-yl-indol-1-yl]-2-methyl-cyclopropyl]-4H-1,2,4-oxadiazol-5-one], under setting [1], the EC50 stood at 1130 nM.

As to `Cc1cc(-n2nc3c(c2-n2ccn(-c4ccc5c(cnn5C)c4F)c2=O)[C@H](C)N(C(=O)c2cc4cc([C@H]5CCOC(C)(C)C5)ccc4n2[C@@]2(c4noc(=O)[nH]4)C[C@@H]2C)CCC3)cc(C)c1F` [Compound 518, 3-[(1S,2S)-1-[5-[(4S)-2,2-dimethyltetrahydropyran-4-yl]-2-[(4S)-2-(4-fluoro-3,5-dimethyl-phenyl)-3-[3-(4-fluoro-1-methyl-indazol-5-yl)-2-oxo-imidazol-1-yl]-4-methyl-4,6,7,8-tetrahydropyrazolo[4,3-c]azepine-5-carbonyl]indol-1-yl]-2-methyl-cyclopropyl]-4H-1,2,4-oxadiazol-5-one], the EC50 under setting [1] is 73.5 nM. With `Cc1cc(-n2nc3c(c2-n2ccn(-c4ccc5c(cnn5C)c4F)c2=O)[C@@H]2CC[C@H](C3)N2C(=O)c2cc3cc([C@@H]4CCOC5(CCC5)C4)ccc3n2[C@@]2(c3noc(=O)[nH]3)C[C@@H]2C)cc(C)c1F` [Compound 424, 3-((1S,2S)-1-(2-((4S,7R)-3-(3-(4-fluoro-1-methyl-1H-indazol-5-yl)-2-oxo-2,3-dihydro-1H-imidazol-1-yl)-2-(4-fluoro-3,5-dimethylphenyl)-2,4,5,6,7,8-hexahydro-4,7-epiminocyclohepta [c]pyrazole-9-carbonyl)-5-((R)-5-oxaspiro[3.5]nonan-8-yl)-1H-indol-1-yl)-2-methylcyclopropyl)-1,2,4-oxadiazol-5(4H)-one], the EC50 under setting [1] was at least 10000 nM. `Cc1cc(-n2nc3c(c2-n2ccn(-c4ccc5c(cnn5C(F)F)c4F)c2=O)[C@@H]2CC[C@H](C3)N2C(=O)c2cc3cc([C@H]4CCOC(C)(C)C4)ccc3n2[C@@]2(c3noc(=O)[nH]3)C[C@@H]2C)cc(C)c1F` [Compound 310, 3-((1S,2S)-1-(2-((4S,7R)-3-(3-(1-(difluoromethyl)-4-fluoro-1H-indazol-5-yl)-2-oxo-2,3-dihydro-1H-imidazol-1-yl)-2-(4-fluoro-3,5-dimethylphenyl)-2,4,5,6,7,8-hexahydro-4,7-epiminocyclohepta [c]pyrazole-9-carbonyl)-5-((S)-2,2-dimethyltetrahydro-2H-pyran-4-yl)-1H-indol-1-yl)-2-methylcyclopropyl)-1,2,4-oxadiazol-5(4H)-one]: the EC50 under setting [1] came out at 182 nM. For the compound `Cc1cc(-n2nc3c(c2-n2ccn(-c4ccc5c(cnn5C)c4F)c2=O)[C@@H]2CC[C@H](C3)N2C(=O)c2cc3cc([C@H]4CCOC(C)(C)C4)ccc3n2C2(c3noc(=O)[nH]3)CC2)cc(C)c1F` [Compound 114, 3-(1-(5-((S)-2,2-dimethyltetrahydro-2H-pyran-4-yl)-2-((4S,7R)-3-(3-(4-fluoro-1-methyl-1H-indazol-5-yl)-2-oxo-2,3-dihydro-1H-imidazol-1-yl)-2-(4-fluoro-3,5-dimethylphenyl)-2,4,5,6,7,8-hexahydro-4,7-epiminocyclohepta [c]pyrazole-9-carbonyl)-1H-indol-1-yl)cyclopropyl)-1,2,4-oxadiazol-5 (4H)-one], the EC50 under setting [1] worked out at 593 nM. In the case of `Cc1cc(-n2nc3c(c2-n2ccn(-c4ccc5c(cnn5C)c4F)c2=O)[C@@H]2CCC[C@H](C3)N2C(=O)c2cc3cc([C@H]4CCOC(C)(C)C4)ccc3n2[C@@]2(c3noc(=O)[nH]3)C[C@@H]2C)cc(C)c1F` [Compound 433, 3-((1S,2S)-1-(5-((S)-2,2-dimethyltetrahydro-2H-pyran-4-yl)-2-((4S,8R)-3-(3-(4-fluoro-1-methyl-1H-indazol-5-yl)-2-oxo-2,3-dihydro-1H-imidazol-1-yl)-2-(4-fluoro-3,5-dimethylphenyl)-4,5,6,7,8,9-hexahydro-2H-4,8-epiminocycloocta [c]pyrazole-10-carbonyl)-1H-indol-1-yl)-2-methylcyclopropyl)-1,2,4-oxadiazol-5 (4H)-one], the “EC50 Ratio” value (Table 1d, potency ratio of stereoisomer pair (less potent / more potent isomer)) was over 333. In addition, the EC50 is, setting by setting: under setting [2], 30 nM; under setting [1], 30 nM; (text to Table 1d, bridge atoms configured into the plane or away from the reader, read-out: potency (EC50)) under 1000 nM.

Take `Cc1cc(-n2nc3c(c2-n2ccn(-c4ccc5c(cnn5C)c4F)c2=O)[C@@H]2CC[C@H](C3)N2C(=O)c2cc3nc(C4CCOC(C)(C)C4)sc3n2[C@@]2(c3noc(=O)[nH]3)C[C@@H]2C)cc(C)c1F` (stereo partly drawn) [Compound 139, 3-[(1S,2S)-1-[2-(2,2-dimethyltetrahydropyran-4-yl)-5-[(1S,8R)-4-(4-fluoro-3,5-dimethyl-phenyl)-3-[3-(4-fluoro-1-methyl-indazol-5-yl)-2-oxo-imidazol-1-yl]-4,5,11-triazatricyclo[6.2.1.02,6]undeca-2,5-diene-11-carbonyl]pyrrolo[3,2-d]thiazol-4-yl]-2-methyl-cyclopropyl]-4H-1,2,4-oxadiazol-5-one]: the EC50 under setting [1] was 3110 nM. With `Cc1cc(-n2nc3c(c2-n2ccn(-c4ccn5c(cc(=O)n5C)c4F)c2=O)[C@@H]2CC[C@H](C3)N2C(=O)c2cc3cc([C@H]4CCOC(C)(C)C4)ccc3n2[C@@]2(c3noc(=O)[nH]3)C[C@@H]2C)cc(C)c1F` [Compound 429, 3-((1S,2S)-1-(5-((S)-2,2-dimethyltetrahydro-2H-pyran-4-yl)-2-((4S,7R)-3-(3-(4-fluoro-1-methyl-2-oxo-1,2-dihydropyrazolo[1,5-a]pyridin-5-yl)-2-oxo-2,3-dihydro-1H-imidazol-1-yl)-2-(4-fluoro-3,5-dimethylphenyl)-2,4,5,6,7,8-hexahydro-4,7-epiminocyclohepta [c]pyrazole-9-carbonyl)-1H-indol-1-yl)-2-methylcyclopropyl)-1,2,4-oxadiazol-5(4H)-one], the EC50 under setting [1] is 12.2 nM. Regarding `Cc1cc(-n2nc3c(c2-n2ccn(-c4cc(F)c5c(cnn5C)c4F)c2=O)[C@@H]2CC[C@H](C3)N2C(=O)c2cc3cc([C@H]4CCOC(C)(C)C4)ncc3n2[C@@]2(c3noc(=O)[nH]3)C[C@@H]2C)cc(C)c1F` [Compound 236, 3-[(1S,2S)-1-[2-[(1S,8R)-3-[3-(4,7-difluoro-1-methyl-indazol-5-yl)-2-oxo-imidazol-1-yl]-4-(4-fluoro-3,5-dimethyl-phenyl)-4,5,11-triazatricyclo[6.2.1.02,6]undeca-2,5-diene-11-carbonyl]-5-[(4S)-2,2-dimethyltetrahydropyran-4-yl]pyrrolo[2,3-c]pyridin-1-yl]-2-methyl-cyclopropyl]-4H-1,2,4-oxadiazol-5-one], the EC50 under setting [1] was found to be 785 nM.

Take `Cc1cc(-n2nc3c(c2-n2ccn(-c4ccc5c(cnn5C)c4F)c2=O)[C@@H]2CCC[C@H](C3)N2C(=O)c2c(C)c3cc([C@H]4CCOC(C)(C)C4)ccc3n2[C@@]2(c3noc(=O)[nH]3)C[C@@H]2C)cc(C)c1F` [Compound 537, 3-[(1S,2S)-1-[5-[(4S)-2,2-dimethyltetrahydropyran-4-yl]-2-[(1S,8R)-4-(4-fluoro-3,5-dimethyl-phenyl)-3-[3-(4-fluoro-1-methyl-indazol-5-yl)-2-oxo-imidazol-1-yl]-4,5,12-triazatricyclo[6.3.1.02,6]dodeca-2,5-diene-12-carbonyl]-3-methyl-indol-1-yl]-2-methyl-cyclopropyl]-4H-1,2,4-oxadiazol-5-one]: the EC50 under setting [1] amounted to 1340 nM. Regarding `Cc1cc(-n2nc3c(c2-n2ccn(-c4ccc5c(cnn5C)c4F)c2=O)CCN(C(=O)c2cc4cc([C@H]5CCOC(C)(C)C5)ccc4n2[C@@]2(c4noc(=O)[nH]4)C[C@@H]2C)CC3)cc(C)c1F` [Compound 421, 3-[(1S,2S)-1-[5-[(4S)-2,2-dimethyltetrahydropyran-4-yl]-2-[2-(4-fluoro-3,5-dimethyl-phenyl)-3-[3-(4-fluoro-1-methyl-indazol-5-yl)-2-oxo-imidazol-1-yl]-4,5,7,8-tetrahydropyrazolo[3,4-d]azepine-6-carbonyl]indol-1-yl]-2-methyl-cyclopropyl]-4H-1,2,4-oxadiazol-5-one], the EC50 under setting [1] is at least 10000 nM. For the compound `Cc1cc(-n2nc3c(c2-n2ccn(-c4ccc5c(cnn5C)c4F)c2=O)[C@H]2CC[C@@H](C3)N2C(=O)c2cc3cc([C@H]4CCOC5(CC5)C4)ccc3n2[C@@]2(c3noc(=O)[nH]3)C[C@@H]2C)cc(C)c1F` [Compound 411, 3-((1S,2S)-1-(2-((4R,7S)-3-(3-(4-fluoro-1-methyl-1H-indazol-5-yl)-2-oxo-2,3-dihydro-1H-imidazol-1-yl)-2-(4-fluoro-3,5-dimethylphenyl)-2,4,5,6,7,8-hexahydro-4,7-epiminocyclohepta [c]pyrazole-9-carbonyl)-5-((S)-4-oxaspiro[2.5]octan-7-yl)-1H-indol-1-yl)-2-methylcyclopropyl)-1,2,4-oxadiazol-5 (4H)-one], the EC50 is, setting by setting: under setting [2], 652 nM; under setting [1], 652 nM. The potency result (text to Table 1d, bridge atoms configured out of the plane or toward the reader) is reported as “little or no potency”.
